The experiment concerns the target Chorismate synthase (Escherichia coli) (UniProt P12008). In words: Compound was evaluated for the binding affinity towards Escherichia coli chorismate synthase.

Chain of Chorismate synthase (Escherichia coli) (P12008 whole entry, looked up): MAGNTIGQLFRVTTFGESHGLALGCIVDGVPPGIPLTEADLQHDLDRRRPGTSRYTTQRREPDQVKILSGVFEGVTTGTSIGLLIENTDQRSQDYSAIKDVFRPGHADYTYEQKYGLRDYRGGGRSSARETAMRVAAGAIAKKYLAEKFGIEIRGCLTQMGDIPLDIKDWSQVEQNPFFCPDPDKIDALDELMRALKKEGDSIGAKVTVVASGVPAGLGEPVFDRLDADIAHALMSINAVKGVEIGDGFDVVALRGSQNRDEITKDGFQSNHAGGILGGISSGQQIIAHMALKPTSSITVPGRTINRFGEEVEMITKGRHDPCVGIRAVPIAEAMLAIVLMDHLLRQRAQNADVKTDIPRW

As a reminder, the Kd is the equilibrium constant for the complex coming apart. The low end stands for tighter binding, the high end for weaker binding. In turn, `Cc1cc2nc3c(=O)[nH]c(=O)nc-3n(C[C@H](O)[C@H](O)[C@H](O)COP(=O)(O)O)c2cc1C` [E101a] showed a Kd greater than 20 µM.

(Values after BindingDB's records for doi:10.1016/S0960-894X(01)80421-2 (1993).)
